One data set has as its target KRAS G12C protein (Homo sapiens, UniProt P01116, G12C). As to the kind of experiment: Nucleotide exchange assay (Method III, KRAS G12C/Raf-RBD TR-FRET). The data set is classed as biochemical. The settings on record: SOS1-mediated exchange of GDP for GTP, 18 hr compound incubation. In a few lines: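 His-tagged GDP-bound KRAS G12C (25 nM in 2× mix) was preincubated with an 11-point, 3-fold compound series for 18 hr at 23° C, then SOS1/GTP was added for 1 hr. FLAG-Raf-RBD with Tb-anti-FLAG/D2-anti-His followed for 2 hr at room temperature. TR-FRET was read, and IC50 was obtained by non-linear regression.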

Another data set deals with NCI-H2122. As to the kind of experiment: Cell proliferation assay panel (Cell Titer-Glo, 72 hr). The settings on record: Homo sapiens. The data set is classed as cell-based. On the procedure: (§1) Potency of compounds was determined in cell proliferation assays in a panel of cancer cell lines. Cells were seeded in 384-well plates (Corning, Cat. #3765) at specified densities in 40 μL of culture medium and incubated overnight at 37° C. in a 5% CO2 incubator (culture conditions). With a robotic dispenser, serially diluted test compounds were added in a volume of 20 nL DMSO to wells in the culture plate to achieve the final desired concentrations of test compounds, and the cells were further incubated in culture conditions for 72 hr. The assay was terminated by addition of 25 μL of Cell Titer-Glo reagent (Promega, Madison, Wis.) to each well. Contents were mixed, the plate was incubated for 10 min at room temperature and luminescence was measured. The IC50 value of each test compound was calculated with XLFit curve fitting software. Results are shown in Table 4. ‘+++’ indicates IC50 values≤300 nM, ‘++’ indicates IC50 values between 300 nM-3 μM, and ‘+’ indicates IC50 values≥3 μM.

A further data set deals with NCI-H2030. Described as above. Format: cell-based. The conditions noted are these: Homo sapiens. On the procedure:
as §1

A further data set concerns KYSE-410. The description is as above. Format: cell-based. The conditions noted are these: Homo sapiens. On the procedure:
as §1

Another data set relates to NCI-H1373. Described as above. Format: cell-based. The conditions noted are these: Homo sapiens. On the procedure: as §1
The next data set deals with MIA PaCa-2. The description is as above. The data set is classed as cell-based. The conditions noted are these: Homo sapiens, MIA PaCa-2, 72 h. On the procedure:
as §1

The test system of another data set is A549. The data set is described as above. The data set is classed as cell-based. The conditions noted are these: Homo sapiens. On the procedure: as §1
The next data set concerns SW1573. The description is as above. The data set is classed as cell-based. The conditions noted are these: Homo sapiens. On the procedure: as §1
The next data set concerns NCI-H358. The data set is described as above. The data set is classed as cell-based. The settings on record: Homo sapiens. On the procedure: as §1
The subject of data set [1] is MIA PaCa-2 subcutaneous xenograft tumors.
Description: MIA PaCa-2 cells were injected subcutaneously (10×10^6 cells in 0.2 mL of PBS with Matrigel (1:1)) into the right flanks of 6-8-week-old female BALB/c nude mice and allowed to grow until the average tumor size reached 150-200 mm^3. The mice were then stratified into treatment groups of 8 animals and treatment initiated on Day 0. Test compound or vehicle (1% Tween 80, 2% HPMC, and 97% water) was administered orally, once daily, for 14 days with an observational phase to monitor tumor growth post-treatment. Tumor size was measured twice weekly in two dimensions using a caliper, and the volume was expressed in mm^3 using the formula: V=(a×b^2/2) where a and b are the long and short diameters of the tumor, respectively. Tumor Growth Inhibition (TGI) was calculated for each group using the formula: TGI %=(1−Ti/Vi)×100, where Ti is the mean tumor volume of the treatment group on the measurement day, and Vi is the mean tumor volume of the control group on the measurement day. Animal body weight was monitored regularly as an indicator of toxicity. […] Data points represent the group mean, and error bars represent the standard error of the mean (SEM).
For another data set, the system named is NCI-H358 cells. Briefly: 3D cell proliferation assay (Cell Titer-Glo 3D, 7 days). Format: cell-based. The conditions noted are these: Homo sapiens, NCI-H358, 168 h, NCI-H358 3D, ultra-low attachment plate. On the procedure:
NCI-H358 cells (ATCC® CRL-5807™) were plated in a 384-well Black/Clear Round Bottom Ultra-Low Attachment Microplate (Corning) in medium (RPMI-1640+10% FBS) at a density of 1000 cells in 50 μL per well, then incubated overnight at 37° C. and 5% CO2. Cells were treated with test compounds at 9 concentrations within a specified concentration range (e.g., 0.5 nM-10 μM) for generation of dose response curves. Test compounds were prepared by 1:3 serial dilution in DMSO from a specified starting concentration (e.g., 20 μM, 2 μM or 0.2 μM) and then added to wells of the assay plate in a total volume of 150 nL DMSO. The cells were further incubated at 37° C. and 5% CO2 for 7 days. Cell viability was assessed by adding 40 μL of Cell Titer-Glo® 3D reagent (Cat. No.: G9683, Promega) to each well and reading luminescence after mixing and incubation of the samples. The IC50 value of each test compound was calculated with XLFit curve fitting software.
(In general: ATP-based viability assays read luminescence as a measure of living cells.)

This note sets out measurements from patent publication US20230023009A1, “HETEROCYCLIC COMPOUNDS AND METHODS OF USE THEREOF” (SPARCBIO LLC, priority 2020, published 2023).

SMILES strings stand for the structures. Read-outs that look alike come from different tables or passages of the source. Some results are limits rather than exact numbers.

By IC50 is commonly meant the point on the concentration scale where inhibition reaches its midpoint. A high value points to a need for much substance. Usually TGI stands for how far tumour growth fell short of that in controls.

KRAS G12C protein, sequence (P01116 1-188 isoform P01116-2 G12C): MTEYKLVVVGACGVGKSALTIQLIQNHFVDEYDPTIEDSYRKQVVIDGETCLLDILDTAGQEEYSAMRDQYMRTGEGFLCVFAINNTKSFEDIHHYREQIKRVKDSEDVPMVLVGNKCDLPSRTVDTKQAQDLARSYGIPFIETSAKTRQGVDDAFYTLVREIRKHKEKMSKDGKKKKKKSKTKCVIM

Consider `C=C(F)C(=O)N1CCN(c2nc(OC[C@@H]3CCCN3C)nc3c2CO[C@@H](c2cccc4cccc(Cl)c24)C3)C[C@@H]1CC#N` (single isomer, unassigned) [43 (Isomer B)], for which the IC50 against KRAS G12C protein is not above 300 nM; in the data set on NCI-H2122 it was 300 to 3000 nM; with NCI-H2030, 300 to 3000 nM; in the data set with KYSE-410, not below 3000 nM; in the data set with NCI-H1373, 300 to 3000 nM; in the data set on MIA PaCa-2 it was not above 300 nM. The IC50 in the data set with A549 was not below 3000 nM; in the data set with SW1573 it was not below 3000 nM; with NCI-H358, not above 300 nM; in the data set with NCI-H358 cells, not above 100 nM. For the same molecule, the TGI is listed as 9.0% in data set [1] (10 mg/kg orally once daily, Day 14 after treatment start); 75.5% in data set [1] (30 mg/kg orally once daily, Day 14 after treatment start (day not restated for comparator)); 94.6% in data set [1] (100 mg/kg orally once daily, Day 14 after treatment start). In data set [1] (orally once daily for 14 days), the “tolerability (from body weight)” value was “well-tolerated”.
